Results from patent US9809602B2, “Compounds for treating viral infections” (INSTITUT PASTEUR KOREA, priority 2014, dated 2017).

Each compound was assayed on genotype 1/2 chimeric cell culture derived HCV (HCVcc) (assay: Genotype 1/2 chimeric HCVcc assay (nano-luciferase, HCV replication)). Details: Hepatitis C virus.
Format: cell-based
Method: Naïve Huh-7.5 target cells were plated at 2400 cells/well in 25 μL of culture media in 384-well plates (Greiner bio-one, μ clear black). After overnight incubation, compounds serially diluted in 10 μL of cell culture media were added. After 2 h compound treatment, cells were inoculated with 40 μL of genotype 1/2 chimeric cell culture derived HCV (HCVcc) which express structural proteins of an HCV genotype 1a isolate (TN accession number EF621489) and non-structural proteins of HCV genotype 2a (JFH-1) with nano-luciferase reporter. At 72 h post infection, nano-luciferase activity (Nano-Glo™, Promega) and cellular ATP (Cell titer-Glo™, Promega) were measured as a marker for HCV replication and cytotoxicity, respectively. EC50 and CC50 were calculated by non-linear regression analyzing using GraphPad Prism (GraphPad Software).

Compound	EC50 [nM]
O=C(c1ccc(Oc2ccccc2)cc1)N1CCC(CN2CCC(N3CCCCC3)CC2)C1 (stereo not shown) [Compound 1089]	1000 to 10000
O=C(Nc1cccc(CN2CCC(N3CCCCC3)CC2)c1)c1ccc(Oc2ccccc2)cc1 [Compound 1075]	100 to 1000
COc1cccc(-c2ccc(C(=O)NCCCN3CCC(N4CCCCC4)CC3)cc2)c1 [Compound 1018]	100 to 1000
O=C(NCCCCCN1CCC(N2CCCCC2)CC1)c1ccc(Oc2ccccc2)cc1 [Compound 1087]	100 to 1000
O=C(NC/C=C/CN1CCC(N2CCCCC2)CC1)c1ccc(Oc2ccccc2)cc1 [Compound 1076]	100 to 1000
O=C(NCCNc1ccc(N2CCCCC2)cc1)c1ccc(Oc2ccccc2)cc1 [Compound 1057]	1000 to 10000
O=C(NCCCN1CCC(N2CCCCC2)CC1)c1ccc(Oc2ccccc2F)cc1 [Compound 1061]	1000 to 10000
O=C(NCCCN1CCC(N2CCCCC2)CC1)c1ccc(-c2ccc(O)cc2)cc1 [Compound 1127]	1000 to 10000
O=C(NCCCN1CCC(N2CCCCC2)CC1)c1c(F)cc(-c2ccc(C(F)(F)F)cc2)cc1F [Compound 1106]	100 to 1000
O=C(Nc1ccc(N2CCC(N3CCCCC3)CC2)cc1)c1ccc(Oc2ccccc2)cc1 [Compound 1048]	1000 to 10000
O=C(NCCCN1CCC(N2CCCCC2)CC1)c1ccc(Oc2ccccc2)cc1 [Compound 1013]	100 to 1000
O=S(=O)(NCCCN1CCC(N2CCCCC2)CC1)c1ccc(Oc2ccc(C(F)(F)F)cc2)cc1 [Compound 1094]	100 to 1000
O=C(NCCCN1CCC(N2CCCCC2)CC1)c1ccc(-c2ccc(C(F)(F)F)cc2)nc1 [Compound 1080]	100 to 1000
O=C(NCCCN1CCC(N2CCCCC2)CC1)c1ccc(-c2ccc3cc[nH]c3c2)cc1 [Compound 1121]	100 to 1000
O=C(NCCCN1CCC(N2CCCCC2)CC1)c1ccc(-c2cccc(CN3CCOCC3)c2)cc1 [Compound 1143]	1000 to 10000
CN1CCC(C2CCN(CCCNC(=O)c3ccc(Oc4ccccc4)cc3)CC2)CC1 [Compound 1065]	100 to 1000
O=C(NCCCN1CCC(N2CCCCC2)CC1)c1ccc(-c2ccc(C(F)(F)F)cc2)cc1 [Compound 1019]	100 to 1000
O=C(NCCCN1CCC(N2CCCCC2)CC1)c1cc2c(s1)CCCC2 [Compound 1002]	> 10000
O=C(NCCCN1CCC(N2CCCCC2)CC1)c1ccc(-c2ccc(C(F)(F)F)s2)cc1 [Compound 1137]	100 to 1000
O=C(CCCN1CCC(N2CCCCC2)CC1)Nc1ccc(-c2ccc(C(F)(F)F)cc2)c(F)c1 [Compound 1113]	100 to 1000
CN(C)c1ccc(-c2ccc(C(=O)NCCCN3CCC(N4CCCCC4)CC3)cc2)cc1 [Compound 1125]	100 to 1000

Same assay, conditions: Hepatitis C virus, Huh7.5, 72 h

Compound	EC50 [nM]
C=CCCOC(=O)c1c(NC(=O)NCc2c(Br)sc3c2CCNC3)sc2c1CCCC2 [Compound 274]	< 100
Cc1nnc(-c2c(NC(=O)NCc3c(C(F)(F)F)sc4c3CCNC4)sc(C)c2C)o1 [Compound 149]	< 100
CCOC(=O)c1c(NC(=O)NCc2c(-n3cccc3)sc3c2CCN(CC)C3)sc2ccccc12 [Compound 34]	100 to 1000
CCOC(=O)c1c(NC(=O)NCc2c(-n3cccc3)sc3c2CCN(CC)C3)sc2c1CCOC2 [Compound 41]	< 100
CC(C)(C)OC(=O)c1c(NC(=O)NCc2c(-c3ccnc(F)c3)sc3c2CCNC3)sc2c1CCCC2 [Compound 310]	< 100
CN(C)CCN1CCc2c(sc(C(F)(F)F)c2CNC(=O)Nc2sc3c(c2C(=O)OC(C)(C)C)CCCC3)C1 [Compound 355]	< 100
CCOC(=O)c1c(NC(=O)NCc2c(Br)sc3c2CCNC3)sc(C)c1C [Compound 133]	< 100
CC1CCc2sc(NC(=O)NCc3c(-n4cccc4)sc4c3CCN(C)C4)c(C(=O)OC(C)(C)C)c2C1 (stereo not shown) [Compound 231]	< 100
COC(=O)c1c(NC(=O)NCc2c(C(F)(F)F)sc3c2CCNC3)sc2c1CCCC2 [Compound 129]	< 100
CC(C)(C)OC(=O)c1c(NC(=O)NCc2c(-c3ccccc3F)sc3c2CCNC3)sc2c1CCCC2 [Compound 227]	100 to 1000
Cc1sc(NC(=O)NCc2c(Br)sc3c2CCNC3)c(C(=O)OC(C)(C)C)c1C [Compound 138]	< 100
CN(C)CCN1CCc2c(sc(-c3cccc(Cl)c3)c2CNC(=O)Nc2sc3c(c2C(=O)OC(C)(C)C)CCCC3)C1 [Compound 358]	< 100
CC(C)(C)OC(=O)c1c(NC(=O)NCc2c(-n3cccc3)sc3c2CCN(C2COC2)C3)sc2c1CCCC2 [Compound 261]	< 100
CCOC(=O)c1c(NC(=O)OCc2c(-n3cccc3)sc3c2CCN(CC)C3)sc2c1CCCC2 [Compound 94]	< 100
CCOC(=O)c1c(NC(=O)NCc2c(Br)sc3c2CCNC3)sc2c1CCCC2 [Compound 81]	< 100
CCOC(=O)c1c(NC(=O)NCc2c(-n3c(C)ccc3C)sc3c2CCN(CC)C3)sc2c1CCCC2 [Compound 51]	< 100
O=C(NCc1c(-c2ccoc2)sc2c1CCNC2)Nc1sc2c(c1C(=O)OC1CCCC1)CCCC2 [Compound 344]	< 100
CN1CCc2c(sc(Br)c2CNC(=O)Nc2sc3c(c2C(=O)OC(C)(C)C)CCCCC3)C1 [Compound 279]	< 100
COC(=O)c1c(NC(=O)NCc2c(Br)sc3c2CCN(C)C3)sc2c1CCCC2 [Compound 175]	< 100
CCOC(=O)c1c(NC(=O)NCc2c(N3CCCC3)sc3c2CCN(C(=O)OC(C)(C)C)C3)sc2c1CCCC2 [Compound 73]	< 100
CC(C)(C)OC(=O)c1c(NC(=O)NCc2c(C(F)(F)F)sc3c2CCNC3)sc2c1CCOC2 [Compound 238]	< 100
CC(C)(C)OC(=O)c1c(NC(=O)NCc2c(-c3ccco3)sc3c2CCNC3)sc2c1CCCC2 [Compound 340]	< 100
CCc1sc2c(c1CNC(=O)Nc1sc(C)c(C)c1C(=O)OC(C)(C)C)CCNC2 [Compound 288]	< 100
CCOC(=O)c1c(NC(=O)C(=O)NCc2c(C(F)(F)F)sc3c2CCNC3)sc2c1CCCC2 [Compound 120]	1000 to 10000
CCN1CCc2c(sc(-n3cccc3)c2CNC(=O)Nc2cccc(Cl)c2)C1 [Compound 9]	> 10000
Cc1sc(NC(=O)NCc2c(-c3ccoc3)sc3c2CCNC3)c(C(=O)OC(C)(C)C)c1C [Compound 332]	< 100

Compound	EC50 [nM]
CCOC(=O)c1c(NC(=O)NCc2c(-n3cccc3)sc3c2CCN(CC)C3)sc(C(C)=O)c1C [Compound 39]	< 100
CCOC(=O)c1c(NC(=O)NCc2c(N3CCCC3)sc3c2CCNC3)sc2c1CCCC2 [Compound 125]	100 to 1000
Cc1sc(NC(=O)NCc2c(-c3ccc(Cl)cc3)sc3c2CCNC3)c(C(=O)OC(C)(C)C)c1C [Compound 369]	< 100
Cc1sc(NC(=O)NCc2c(-n3c(C)ccc3C)sc3c2CCNC3)c(C(=O)OC(C)(C)C)c1C [Compound 352]	1000 to 10000
CC(C)OC(=O)c1c(NC(=O)NCc2c(C(F)(F)F)sc3c2CCNC3)sc2c1CCCC2 [Compound 167]	< 100
O=C(NCc1c(C(F)(F)F)sc2c1CCNC2)Nc1sc2c(c1C(=O)OC1CCOCC1)CCCC2 [Compound 330]	< 100
CNCc1sc(-n2cccc2)c(CNC(=O)Nc2sc3c(c2C(=O)OC(C)(C)C)CCCC3)c1C [Compound 158]	100 to 1000
CCN1CCc2c(sc(C(F)(F)F)c2CNC(=O)Nc2sc3c(c2C(=O)OC(C)C)CCCC3)C1 [Compound 171]	< 100
CCN1CCc2c(sc(Br)c2CNC(=O)Nc2sc3c(c2C(=O)OC2CCCC2)CCCC3)C1 [Compound 263]	< 100
CCOC(=O)c1c(NC(=O)NCc2c(-n3cccc3)sc3c2CCN(CC)C3)sc2c1CC(C)CC2C (stereo not shown) [Compound 205]	< 100
CC(C)OC(=O)c1c(NC(=O)NCc2c(Br)sc3c2CCN(C)C3)sc2c1CCCC2 [Compound 172]	< 100
CCOC(=O)c1c(NC(=O)NCc2c(-c3ccccc3)sc3c2CCNC3)sc2c1CCCC2 [Compound 62]	100 to 1000
CCN1CCc2c(sc(Br)c2CNC(=O)Nc2sc3c(c2C(=O)OC(C)C)CCCC3)C1 [Compound 174]	< 100
CCOC(=O)c1cc2ccccc2cc1NC(=O)NCc1c(-n2cccc2)sc2c1CCN(CC)C2 [Compound 45]	1000 to 10000
Cc1sc(NC(=O)NCc2c(-n3cccc3)sc3c2CCN(C)C3)c(C(=O)OC(C)C)c1C [Compound 196]	< 100
CCOC(=O)c1c(NC(=O)NCc2c(C(F)(F)F)sc3c2CCN(CC)C3)sc2c1CCCC2 [Compound 118]	< 100
CC(C)OC(=O)c1c(NC(=O)NCc2c(-n3cccc3)sc3c2CCNC3)sc2c1CCCC2 [Compound 141]	< 100
CC(C)(C)OC(=O)c1c(NC(=O)NCc2c(-n3cccc3)sc3c2CCN(CCO)C3)sc2c1CCCC2 [Compound 258]	< 100
CCN1CCc2c(sc(-n3cccc3)c2CNC(=O)Nc2sc3c(c2C(=O)NCCCOC)CCCC3)C1 [Compound 79]	100 to 1000
COC(=O)c1c(NC(=O)NCc2c(Br)sc3c2CCNC3)sc2c1CCCC2 [Compound 128]	< 100
CC(C)(C)OC(=O)c1c(NC(=O)NCc2c(-c3cccc(F)c3)sc3c2CCNC3)sc2c1CCCC2 [Compound 160]	< 100
CN1CCc2c(sc(Br)c2CNC(=O)Nc2sc3c(c2C(=O)OC(C)(C)C)CCC3)C1 [Compound 299]	< 100
CCOC(=O)c1c(NC(=O)NCc2c(-n3cccc3)sc3c2CCN(Cc2ccccc2)C3)sc2c1CCCC2 [Compound 7]	< 100
CCOC(=O)c1c(NC(=O)NCc2c(-n3cccc3)sc3c2CCN(CC)C3)sc(OC)c1C [Compound 32]	100 to 1000
CC(C)(C)OC(=O)c1c(NC(=O)NCc2c(-n3cccc3)sc3c2CCNC3)sc2c1CCOC2 [Compound 319]	< 100
CCOC(=O)c1c(NC(=O)C(=O)NCc2c(-n3cccc3)sc3c2CCNC3)sc2c1CCCC2 [Compound 86]	1000 to 10000
